Experimental data taken from patent publication US10350210B2, “EGFR and ALK dual inhibitor” (PRECEDO PHARMACEUTICALS CO., LTD, priority 2015, dated 2019).
Like-named read-outs stand apart in the source and are kept apart here.

Legend:
HCC827 = experiment: Growth of cancer cells (Cell Titer-Glo viability), HCC827; format: cell-based; details: Homo sapiens; HCC827 (mutant EGFR del19), 72 hrs
Source text: (§1) By testing the effect of the novel kinase inhibitors on the proliferation of cancer cells, the selectivity of the compounds of the present disclosure in inhibiting the proliferation of cancer cells was further assessed. In this example, human non-small cell lung cancer cell NCI-H1975 (expressing EGFR L858R/T790M double mutant gene), human skin squamous carcinoma cell A431 (expressing wild-type EGFR gene), non-small cell lung cancer NCI-H3255 (expressing EGFR L858R mutant gene), non-small cell lung cancer cell NCI-H3122 (expressing ALK gene), human non-small cell lung cancer cell A549 (expressing wild-type EGFR gene), human non-small cell lung cancer cell NCI-H2122 (expressing wild-type EGFR gene), human non-small cell lung cancer cell NCI-H460 (expressing wild-type EGFR gene), human non-small cell lung cancer cell PC-9 (expressing EGFR delE746_A750 mutant gene), Chinese hamster ovary cell CHO (Cricetulus griseus, hamster, Chinese, ovary), Chinese hamster lung cell CHL, human non-small cell lung cancer cell HCC827 (expressing mutant EGFR del19 gene), human lung adenocarcinoma cell HCC4006 (expressing mutant EGFR del19 gene), human non-small cell lung cancer cell NCI-H2228 (expressing wild-type ALK gene), and mouse primary B cell BaF3 were used, and the above cells were all purchased from ATCC (US). In addition, mouse BaF3-TEL-ALK (stably expressing ALK kinase), mouse BaF3-ALK-F1174L (stably expressing mutant ALK F1174L kinase), mouse BaF3-NPM-ALK (stably expressing ALK kinase), mouse BaF3-TEL-EGFR (stably expressing EGFR kinase), mouse BaF3-TEL-EGFR-T790M (stably expressing EGFR T790M mutant kinase), mouse BaF3-FL-EGFR-Del19 (stably expressing EGFR delE746_A750 mutant kinase), mouse BaF3-TEL-EGFR-L858R (stably expressing EGFR L858R mutant kinase), mouse BaF3-FL-EGFR-T790M-L858R (stably expressing EGFR T790M/L858R mutant kinase), mouse BaF3-TEL-INSR (stably expressing INSR protein), mouse BaF3-TEL-IGF1R (stably expressing IGF1R Protein), mouse BaF3-EML4-ALK (stably expressing EML4-ALK Protein), mouse BaF3-TEL-JAK3 (stably expressing JAK3 kinase protein), mouse BaF3-TEL-CSF1R (stably expressing CSF1R protein), and mouse BaF3-TEL-ALK-F1196M (stably expressing ALK F1196M mutant kinase) were also used in this example. The above cell lines were all established by our laboratory via the following process: kinase proteins or protein domain sequences of human ALK, ALK F1174L, EGFR, EGFR T790M, EGFR delE746_A750, EGFR L858, EGFR T790M/L858R, INSR, IGF1R, EML4-ALK, JAK3, CSF1R, ALK F1196M were amplified respectively by PCR, and were respectively inserted into MSCV-Puro vector (Clontech) with N-terminal TEL fragments and/or NPM fragments and/or TPR fragments; the resultants were stably transfected into mouse BaF3 cells by the means of retrovirus, and the IL-3 growth factors were removed, and eventually the ALK, ALK F1174L, EGFR, EGFR T790M, EGFR delE746_A750, EGFR L858, EGFR T790M/L858R, INSR, IGF1R, EML4-ALK, JAK3, CSF1R, ALK F1196M-transferred protein dependent cell lines were obtained.
(§2) The number of viable cells was determined quantitatively by a microplate reader using Cell Titer-Glo® (Promega, US) chemiluminescence cell viability assay kit.

A549 = experiment: Growth of cancer cells (Cell Titer-Glo viability), A549; format: cell-based; details: Homo sapiens; A549 (wild-type EGFR), 72 hrs
Source text: as §1, §2

A431 = experiment: Growth of cancer cells (Cell Titer-Glo viability), A431; format: cell-based; details: Homo sapiens
Source text: as §1, §2

NCI-H2122 = experiment: Growth of cancer cells (Cell Titer-Glo viability), NCI-H2122; format: cell-based; details: Homo sapiens; NCI-H2122 (wild-type EGFR), 72 hrs
Source text: as §1, §2

CHO = experiment: Cell growth (Cell Titer-Glo viability), CHO; format: cell-based, Chinese hamster; details: Cricetulus griseus
Source text: as §1, §2

NCI-H2228 = experiment: Growth of cancer cells (Cell Titer-Glo viability), NCI-H2228; format: cell-based; details: Homo sapiens; NCI-H2228 (wild-type ALK), 72 hrs
Source text: as §1, §2

BaF3-ALK-F1174L = experiment: Cell growth (Cell Titer-Glo viability), BaF3-ALK-F1174L; format: cell-based; details: Mus musculus; BaF3-ALK-F1174L (mutant ALK F1174L kinase), 72 hrs
Source text: as §1, §2

NCI-H1975 = experiment: Growth of cancer cells (Cell Titer-Glo viability), NCI-H1975; format: cell-based; details: Homo sapiens; NCI-H1975 (EGFR L858R/T790M double mutant), 72 hrs
Source text: as §1, §2

CHL = experiment: Cell growth (Cell Titer-Glo viability), CHL; format: cell-based, Chinese hamster; details: Cricetulus griseus
Source text: as §1, §2

BaF3-NPM-ALK = experiment: Cell growth (Cell Titer-Glo viability), BaF3-NPM-ALK; format: cell-based; details: Mus musculus; BaF3-NPM-ALK (stably expressing ALK kinase), 72 hrs
Source text: as §1, §2

PC-9 = experiment: Growth of cancer cells (Cell Titer-Glo viability), PC-9; format: cell-based; details: Homo sapiens; PC-9 (EGFR delE746_A750 mutant), 72 hrs
Source text: as §1, §2

NCI-H3122 = experiment: Growth of cancer cells (Cell Titer-Glo viability), NCI-H3122; format: cell-based; details: Homo sapiens
Source text: as §1, §2

BaF3-FL-EGFR-Del19 = experiment: Cell growth (Cell Titer-Glo viability), BaF3-FL-EGFR-Del19; format: cell-based; details: Mus musculus; BaF3-FL-EGFR-Del19 (EGFR delE746_A750 mutant kinase), 72 hrs
Source text: as §1, §2

BaF3-TEL-ALK = experiment: Cell growth (Cell Titer-Glo viability), BaF3-TEL-ALK; format: cell-based; details: Mus musculus; BaF3-TEL-ALK (stably expressing ALK kinase), 72 hrs
Source text: as §1, §2

BaF3-TEL-EGFR-T790M = experiment: Cell growth (Cell Titer-Glo viability), BaF3-TEL-EGFR-T790M; format: cell-based; details: Mus musculus; BaF3-TEL-EGFR-T790M (EGFR T790M mutant kinase), 72 hrs
Source text: as §1, §2

BaF3 = experiment: Cell growth (Cell Titer-Glo viability), BaF3; format: cell-based; details: BaF3 mouse primary B cell, 72 hrs
Source text: as §1, §2

[1] = A-431, A431 (wild-type EGFR), 72 hrs, read-out: GI50
[2] = CHO Chinese hamster ovary cell, 72 hrs, read-out: GI50
[3] = CHL Chinese hamster lung cell, 72 hrs, read-out: GI50
[4] = NCI-H3122 (expressing ALK gene), 72 hrs, read-out: GI50

SMILES	GI50 (HCC827) [nM]	GI50 (A549) [nM]	GI50 (A431; [1]) [nM]	GI50 (NCI-H2122) [nM]	GI50 (CHO; [2]) [nM]	GI50 (NCI-H2228) [nM]	GI50 (BaF3-ALK-F1174L) [nM]	GI50 (NCI-H1975) [nM]	GI50 (CHL; [3]) [nM]	GI50 (BaF3-NPM-ALK) [nM]	GI50 (PC-9) [nM]	GI50 (NCI-H3122; [4]) [nM]	GI50 (A431; A-431, 72 h) [nM]	GI50 (CHO; CHO, 72 h) [nM]	GI50 (CHL; CHL, 72 h) [nM]	GI50 (NCI-H3122; NCI-H3122, 72 h) [nM]	GI50 (BaF3-FL-EGFR-Del19) [nM]	GI50 (BaF3-TEL-ALK) [nM]	GI50 (BaF3-TEL-EGFR-T790M) [nM]	GI50 (BaF3) [nM]
C=CC(=O)Nc1cc(Nc2ncc(Cl)c(Nc3ccccc3S(=O)(=O)C(C)C)n2)c(OC)cc1N1CCN[C@H](C)C1 [Compound 28, (R)—N-(5-(5-chloro-4-(2-(isopropylsulfonyl)phenylamino)pyrimidin-2-ylamino)-4-methoxy-2-(3-methylpiperazin-1-yl)phenyl)acrylamide]	64	480	71	621	1700	31	1000	140	3300	1	71									
C=CC(=O)Nc1cc(Nc2ncc(Cl)c(Nc3ccccc3S(=O)(=O)C(C)C)n2)c(OC)cc1N1CCN(CC2CC2)CC1 [Compound 14, N-(5-(5-chloro-4-(2-(isopropylsulfonyl)phenylamino)pyrimidin-2-ylamino)-2-(4-(cyclopropylmethyl)piperazin-1-yl)-4-methoxyphenyl)acrylamide]	32	130	350	4300	300	28		100	2000	< 0.3		< 0.3								
C[C@@H](Oc1cc(-c2cnn(C3CCNCC3)c2)cnc1N)c1c(Cl)ccc(F)c1Cl [Crizotinib, reference compound]													1000	6400	1900	73				
C=CC(=O)Nc1cc(Nc2ncc(Cl)c(Nc3ccc(F)c(Cl)c3)n2)c(OC)cc1N1CCN(C)CC1 [Compound 21, N-(5-(5-chloro-4-(3-chloro-4-fluorophenylamino)pyrimidin-2-ylamino)-4-methoxy-2-(4-methylpiperazin-1-yl)phenyl)acrylamide]	28	> 10000	1100	1400	6200	78	740	100	> 10000		31	300					< 0.3	43	35	6800
C=CC(=O)Nc1cc(Nc2ncc(Cl)c(Nc3ccccc3S(=O)(=O)C(C)C)n2)c(OC)cc1N1CCN(CCOC)CC1 [Compound 13, N-(5-(5-chloro-4-(2-(isopropylsulfonyl)phenylamino)pyrimidin-2-ylamino)-4-methoxy-2-(4-(2-methoxyethyl)piperazin-1-yl)phenyl)acrylamide]	15	630	470		470	5.9		41	3700	< 0.3	12	< 0.3						> 10000		1400
C=CC(=O)Nc1cc(Nc2ncc(Cl)c(Nc3cccc(C(F)(F)F)c3)n2)c(OC)cc1N1CCN(C)CC1 [Compound 18, N-(5-(5-chloro-4-(3-(trifluoromethyl)phenylamino)pyrimidin-2-ylamino)-4-methoxy-2-(4-methylpiperazin-1-yl)phenyl)acrylamide]	46	> 10000	4600	3400	5400	170	1700	260	4200		160	770					< 0.3	180	80	4300
C=CC(=O)Nc1cc(Nc2ncc(Cl)c(Nc3ccccc3S(=O)(=O)C(C)C)n2)c(OC)cc1N1CCN(C2CCCCC2)CC1 [Compound 15, N-(5-(5-chloro-4-(2-(isopropylsulfonyl)phenylamino)pyrimidin-2-ylamino)-2-(4-cyclohexylpiperazin-1-yl)-4-methoxyphenyl)acrylamide]	38	390	370		170	70		77	1400	< 0.3	36	< 0.3						7.5		300
C=CC(=O)Nc1cc(Nc2ncc(Cl)c(Nc3ccccc3S(=O)(=O)C(C)C)n2)c(OC)cc1N1CCOCC1 [Compound 7, N-(5-(5-chloro-4-(2-(isopropylsulfonyl)phenylamino)pyrimidin-2-ylamino)-4-methoxy-2-morpholinylphenyl) acrylamide]	110	360	840	1030	2900	31	630	1200	9100	1	90									
C=CC(=O)Nc1cc(Nc2ncc(Cl)c(Nc3ccccc3S(=O)(=O)C(C)C)n2)c(OC)cc1N1CCN[C@@H](C)C1 [Compound 29, (S)—N-(5-(5-chloro-4-(2-(isopropylsulfonyl)phenylamino)pyrimidin-2-ylamino)-4-methoxy-2-(3-methylpiperazin-1-yl)phenyl)acrylamide]	59	690	100	680	1500	73	950	120	3700	3	62									
C=CC(=O)Nc1cc(Nc2ncc(Cl)c(Nc3ccccc3S(=O)(=O)C(C)C)n2)c(OC)cc1N1CCN(Cc2ccccc2)CC1 [Compound 16, N-(2-(4-benzylpiperazin-1-yl)-5-(5-chloro-4-(2-(isopropylsulfonyl)phenylamino)pyrimidin-2-ylamino)-4-methoxyphenyl)acrylamide]		4500	4200	1100	1300	66		310	> 10000	16	230	20						16		4100
